Values belong to the compound of their own block, whether it stands above or below them.
Experiments:
[1] = pharmacokinetic properties test in rats; assay type: in vivo; details: SD rat, single, plasma; for MRT last: read-out: MRT0-t; for Vd: read-out: Vss
Description: (§1) The pharmacokinetic properties of the compounds of the present disclosure in different animal species were investigated by measuring plasma drug concentrations following intravenous and oral gavage in mouse, rat, and dog.
(§2) i. The compounds were weighed, then the solvent (5% DMSO + 10% Solutol + 85% saline) was added to prepare the administration solution. ii. On the day before the experiment, animals in the oral administration group were fasted overnight (10-14 hours) and fed 4 hours after administration. iii. At each time point after administration, approximately 30 µL of venous blood was collected from an appropriate location in each group of animals and placed in a sodium heparin tube. Blood samples were placed on ice and centrifuged within 1 hour to separate plasma (centrifugation conditions: 6800 g, 6 min, 2-8°C). Plasma samples were stored at -80°C until analysis.
(§3) b) An LC-MS/MS analytical method was developed for measuring compound concentrations in mouse, rat, and dog plasma. This method was used to determine compound concentrations in biological samples obtained in this assay.
(§4) Pharmacokinetic parameters were calculated using Phoenix WinNonlin 7.0 using plasma drug concentration data at different time points.

wild-type mice = assay: in vivo efficacy study in wild-type mice (HGB, ATP, 2,3-DPG in whole blood); details: C57BL/6J, whole blood 2-3 hours after last administration; for HGB: vehicle control 14.9; for ATP: vehicle control 452.0; for 2,3-DPG: vehicle control 1727.8
Description: The effects of the compound on wild-type mice were evaluated by detecting the concentrations of HGB, ATP, and 2,3-DPG in the whole blood of mice.
• i. On the day of administration, the compound was weighed, then the vehicle was added to prepare the administration solution: vehicle: 5% DMSO + 10% Solutol + 85% Saline
i. Wild-type mice were randomly divided into groups based on body weight, with 8 mice per group.
• i. Whole blood sample was collected 2-3 hours after the last administration of the test animal for HGB assay.
• i. An LC-MS/MS method was established to determine the ATP and 2,3-DPG contents in whole blood sample 2-3 hours after the last administration of the test animal.

[2] = pharmacokinetic properties test in dogs; assay type: in vivo; details: dog, Beagle, single, plasma; for MRT last: read-out: MRT0-t; for Vd: read-out: Vss
Description: as §1, §2, §3, §4

[3] = pharmacokinetic properties test in mice; assay type: in vivo; details: ICR mouse, single, plasma; for MRT last: read-out: MRT0-t; for Vd: read-out: Vss
Description: as §1, §2, §3, §4

[4] = 2.5 mg/kg oral gavage twice a day 14 days
[5] = 7.5 mg/kg oral gavage twice a day 14 days
[6] = 25 mg/kg oral gavage twice a day 14 days
[7] = 15 mg/kg oral gavage twice a day 14 days
[8] = 50 mg/kg oral gavage twice a day 14 days
[9] = 75 mg/kg oral gavage twice a day 14 days

AUC(0-t) ([1]; 1 mg/kg intravenous injection): 394 ng·h/mL
Cmax ([1]; 1 mg/kg intravenous injection): 689 ng/mL
Tmax ([1]; 1 mg/kg intravenous injection): 0.08 h
clearance ([1]; 1 mg/kg intravenous injection): 42.2 mL/min/kg
half-life ([1]; 1 mg/kg intravenous injection): 0.64 h
MRT last ([1]; 1 mg/kg intravenous injection): 0.58 h
Vd ([1]; 1 mg/kg intravenous injection): 1.56 L/kg
AUC(0-t) ([1]; 10 mg/kg oral gavage, fasted): 1730 ng·h/mL
Cmax ([1]; 10 mg/kg oral gavage, fasted): 993 ng/mL
Tmax ([1]; 10 mg/kg oral gavage, fasted): 0.25 h
half-life ([1]; 10 mg/kg oral gavage, fasted): 1.53 h
MRT last ([1]; 10 mg/kg oral gavage, fasted): 2.24 h
AUC(0-t) ([2]; 2 mg/kg intravenous injection): 8570 ng·h/mL
Cmax ([2]; 2 mg/kg intravenous injection): 1770 ng/mL
Tmax ([2]; 2 mg/kg intravenous injection): 0.14 h
clearance ([2]; 2 mg/kg intravenous injection): 3.72 mL/min/kg
half-life ([2]; 2 mg/kg intravenous injection): 5.81 h
MRT last ([2]; 2 mg/kg intravenous injection): 5.53 h
Vd ([2]; 2 mg/kg intravenous injection): 1.55 L/kg
AUC(0-t) ([2]; 5 mg/kg oral gavage, fasted): 19500 ng·h/mL
Cmax ([2]; 5 mg/kg oral gavage, fasted): 2480 ng/mL
Tmax ([2]; 5 mg/kg oral gavage, fasted): 1.33 h
half-life ([2]; 5 mg/kg oral gavage, fasted): 4.47 h
MRT last ([2]; 5 mg/kg oral gavage, fasted): 5.28 h
AUC(0-t) ([3]; 1 mg/kg intravenous injection): 679 ng·h/mL
Cmax ([3]; 1 mg/kg intravenous injection): 945 ng/mL
Tmax ([3]; 1 mg/kg intravenous injection): 0.08 h
clearance ([3]; 1 mg/kg intravenous injection): 25.1 mL/min/kg
half-life ([3]; 1 mg/kg intravenous injection): 1.3 h
MRT last ([3]; 1 mg/kg intravenous injection): 0.91 h
Vd ([3]; 1 mg/kg intravenous injection): 1.5 L/kg
AUC(0-t) ([3]; 10 mg/kg oral gavage, fasted): 7880 ng·h/mL
Cmax ([3]; 10 mg/kg oral gavage, fasted): 4230 ng/mL
Tmax ([3]; 10 mg/kg oral gavage, fasted): 0.33 h
half-life ([3]; 10 mg/kg oral gavage, fasted): 1.75 h
MRT last ([3]; 10 mg/kg oral gavage, fasted): 1.89 h
SMILES: N#Cc1ccc(S(=O)(=O)N2CC(=C3CN(C(=O)[C@H](CO)c4ccccc4)C3)C2)cc1 [Compound 65, (S)-4-(1'-(3-hydroxy-2-phenylpropionyl)-1',4'-dihydro-2H,2'H-[3,3'-diazetidinylidene]-1(4H)-ylsulfonyl)benzonitrile]
HGB (wild-type mice; [4]): 15.1 g/dL
ATP (wild-type mice; [4]): 481.5 µg/mL
2,3-DPG (wild-type mice; [4]): 1417.4 µg/mL
HGB (wild-type mice; [5]): 14.9 g/dL
ATP (wild-type mice; [5]): 486.5 µg/mL
2,3-DPG (wild-type mice; [5]): 1417.4 µg/mL
HGB (wild-type mice; [6]): 14.9 g/dL
ATP (wild-type mice; [6]): 475.9 µg/mL
2,3-DPG (wild-type mice; [6]): 1363.0 µg/mL

AUC(0-t) ([1]; 1 mg/kg intravenous injection): 537 ng·h/mL
Cmax ([1]; 1 mg/kg intravenous injection): 731 ng/mL
Tmax ([1]; 1 mg/kg intravenous injection): 0.08 h
clearance ([1]; 1 mg/kg intravenous injection): 29.9 mL/min/kg
half-life ([1]; 1 mg/kg intravenous injection): 4.91 h
MRT last ([1]; 1 mg/kg intravenous injection): 2.12 h
Vd ([1]; 1 mg/kg intravenous injection): 5.11 L/kg
AUC(0-t) ([1]; 10 mg/kg oral gavage, fasted): 3300 ng·h/mL
Cmax ([1]; 10 mg/kg oral gavage, fasted): 1740 ng/mL
Tmax ([1]; 10 mg/kg oral gavage, fasted): 0.25 h
half-life ([1]; 10 mg/kg oral gavage, fasted): 3.43 h
MRT last ([1]; 10 mg/kg oral gavage, fasted): 3.2 h
AUC(0-t) ([2]; 2 mg/kg intravenous injection): 3110 ng·h/mL
Cmax ([2]; 2 mg/kg intravenous injection): 1590 ng/mL
Tmax ([2]; 2 mg/kg intravenous injection): 0.08 h
clearance ([2]; 2 mg/kg intravenous injection): 11.2 mL/min/kg
half-life ([2]; 2 mg/kg intravenous injection): 3.72 h
MRT last ([2]; 2 mg/kg intravenous injection): 2.79 h
Vd ([2]; 2 mg/kg intravenous injection): 1.93 L/kg
AUC(0-t) ([2]; 5 mg/kg oral gavage, fasted): 12200 ng·h/mL
Cmax ([2]; 5 mg/kg oral gavage, fasted): 3300 ng/mL
Tmax ([2]; 5 mg/kg oral gavage, fasted): 0.67 h
half-life ([2]; 5 mg/kg oral gavage, fasted): 5.21 h
MRT last ([2]; 5 mg/kg oral gavage, fasted): 4.51 h
AUC(0-t) ([3]; 1 mg/kg intravenous injection): 260 ng·h/mL
Cmax ([3]; 1 mg/kg intravenous injection): 570 ng/mL
Tmax ([3]; 1 mg/kg intravenous injection): 0.08 h
clearance ([3]; 1 mg/kg intravenous injection): 62.9 mL/min/kg
half-life ([3]; 1 mg/kg intravenous injection): 2.44 h
MRT last ([3]; 1 mg/kg intravenous injection): 1.33 h
Vd ([3]; 1 mg/kg intravenous injection): 6.3 L/kg
AUC(0-t) ([3]; 10 mg/kg oral gavage, fasted): 2010 ng·h/mL
Cmax ([3]; 10 mg/kg oral gavage, fasted): 1440 ng/mL
Tmax ([3]; 10 mg/kg oral gavage, fasted): 0.25 h
half-life ([3]; 10 mg/kg oral gavage, fasted): 2.03 h
MRT last ([3]; 10 mg/kg oral gavage, fasted): 1.71 h
SMILES: O=C([C@H](CO)c1ccc(F)cc1F)N1CC(=C2CN(S(=O)(=O)c3ccccn3)C2)C1 [Compound 83, (S)-2-(2,4-difluorophenyl)-3-hydroxy-1-(1'-(pyridin-2-ylsulfonyl)-1',4'-dihydro-2H,2'H-[3,3'-diazetidinylidene]-1(4H)-yl)propan-1-one]
HGB (wild-type mice; [7]): 15.3 g/dL
ATP (wild-type mice; [7]): 476.9 µg/mL
2,3-DPG (wild-type mice; [7]): 1454.1 µg/mL
HGB (wild-type mice; [8]): 15.4 g/dL
ATP (wild-type mice; [8]): 472.1 µg/mL
2,3-DPG (wild-type mice; [8]): 1444.5 µg/mL
HGB (wild-type mice; [9]): 14.6 g/dL
ATP (wild-type mice; [9]): 474.1 µg/mL
2,3-DPG (wild-type mice; [9]): 1441.8 µg/mL

From EP4721737A1, “USE OF PHARMACEUTICAL COMPOSITION COMPRISING COMPOUND HAVING BIS(AZANYLYLIDENE) SULFONYL STRUCTURE FOR TREATING ANEMIA-RELATED DISEASES” (Scinnohub Pharmaceutical Co., Ltd., priority 2023, dated 2024)
